According to US20130196903A1 (priority 2010, published 2013):

Columns and labels:
[1] = test system: dengue virus; conditions: dengue virus infectivity; cited from earlier work
[2] = test system: wild-type (WT) strain of Measles Virus (MV); experiment: Antiviral activity against a wild-type strain of Measles Virus; type: cell-based
Protocol: The antiviral activity of a cholesterol-derivatized inhibitors derived from the sequence of Human Parainfluenza virus type 3 (HPIV3) was tested against a wild-type (WT) strain of Measles Virus (MV).

Substance | antiviral activity [1] | fold more potent than the underivatized peptide [2]
AWDFGSLGGVFTSIGKALHQVF (Dengue virus 2 (DV2)) [DV2^419-440] | very weak antiviral activity | –
Ac-VALDPIDISIVLNKAKSDLEESKEWIRRSNGKLDSIGSGSG-C(PEG4-Chol) (Ac-VALDPIDISIVLNKAKSDLEESKEWIRRSNGKLDSIGSGSG-{C(PEG4-cholesterol)}) | – | 5 fold
[(Ac-VALDPIDISIVLNKAKSDLEESKEWIRRSNGKLDSIGSGSG-C(Mal-PEG4)]2-Chol | – | 250 fold
